Measurements as given in patent publication US9125862B2, “Methods for the treatment of Prader-Willi-like syndrome or non-organic failure to thrive (NOFITT) feeding disorder using an agonist of the oxytocin receptor” (Institut National de la Sante et de la Rechereche Medicale …, priority 2010, dated 2015).

Assays:
wild type newborns = assay: Injection of oxytocin in wild type neonates: lethality and survival; type: in vivo, mouse
Description: (§1) Three to 5 hours after delivery, wild type pups or pups issued from a cross between an heterozygote (+/−) male with wild type females were temporally removed (10 min) from their mother, weighted and given a single s.c. (in the ventral region at the level of floating ribs) injection (20 μl) of isotonic saline or 2 μg oxytocin (Phoenix Pharmaceuticals. Inc., Catalog No. 051-01) dissolved in isotonic saline (20 μl). […] Following the same protocol, we injected vasopressin (Phoenix Pharmaceuticals. Inc., Catalog No. 065-07) at different doses. At P2, pups were scarified to be genotyped.
The results obtained with the injection of SSR 126768A OTA let us think that we might restore a normal feeding behaviour in Magel2 KO newborns with an OT injection just after birth. Early neonatal manipulation of OT was reported in the literature without alterations of the postnatal development (Cushing, B. S., et Al., 2003; Yamamoto, Y., et al., 2004; Saito, O., et Al., 2007). Initially, 28 wild type newborns were injected with an isotonic saline (20 μl) and 4 of them died at P1. Another cohort of 28 wild type newborns, […] on hypothalamic nuclei one hour after the injection (Cushing, B. S., et Al., 2003; Yamamoto, Y., et al., 2004). […] At P2, we observed that 95% (35/37) of wild type and 93% (37/40) of Magel2 mutant newborns survived with milk previously detected in their stomach at P1. […]

Magel2 KO neonates = assay: Injection of oxytocin or vasopressin in Magel2 KO neonates: rescue of feeding and survival; type: in vivo, mouse
Description: as §1
The results obtained with the injection of SSR 126768A OTA let us think that we might restore a normal feeding behaviour in Magel2 KO newborns with an OT injection just after birth. Early neonatal manipulation of OT was reported in the literature without alterations of the postnatal development (Cushing, B. S., et Al., 2003; Yamamoto, Y., et al., 2004; Saito, O., et Al., 2007). Initially, 28 wild type newborns were injected with an isotonic saline (20 μl) and 4 of them died at P1. Another cohort of 28 wild type newborns, […] on hypothalamic nuclei one hour after the injection (Cushing, B. S., et Al., 2003; Yamamoto, Y., et al., 2004). We then decided to inject 2 μg of OT in Magel2 KO and wild type newborns, 3 to 5 hours after birth, the time when wild type newborns started to suckle but not the mutant neonates. […] The level of lethality is similar after an injection of saline solution (4/28 dead pups) or oxytocin (3/28 dead pups) and is in the range of lethality normally observed in wild type cohorts. In a second step, ten litters including a total of 37 wild type and 40 Magel2 KO neonates, were injected with an oxytocin solution. At P2, we observed that 95% (35/37) of wild type and 93% (37/40) of Magel2 mutant newborns survived with milk previously detected in their stomach at P1. In parallel, we controlled that the rescue of Magel2 KO neonates was specifically due to the oxytocin injection and not to the injection stress and/or handling of neonates. […]

adult patients with PWS = assay: Tolerance in the clinical pilot study; type: in vivo, human; conditions: single intranasal 24 UI
Excerpt: The inventors designed a double-blind randomised, placebo-controlled pilot study (ClinicalTrials.gov Identifier: NCT01038570) to be conducted in a dedicated PWS centre, where patients are regularly admitted for one month and live in a controlled environment. Patients know they have no free access to food but no doubt about the time and the content of meals. For each stay, 16 patients with PWS are admitted and take part in daily planned occupational and physical group activities. They also receive medical care as needed and psychological support. The 24 patients included in this study (16 females, 8 males, median age 28.5 years [18.7 to 43.6], median BMI 43 kg/m2 [19.4 to 67.4]) were stratified on gender and IQ (median IQ=51 [45 to 75]). […] Patients as well as parents or caregivers gave their written consent prior to entering the study. Exclusion criteria were an abnormal ECG and other severe cardiovascular problems. Patients were well known to the team. Each pair of patients of the same gender and same IQ range was evaluated the same day. The two patients of the pair received either OT or placebo in a double-blind randomisation. Patients were included in the study over the course of three series of stays.
Each patient received a single intranasal administration of either placebo (saline solution) or OT (Syntocinon®/-Spray, Novartis, Basel, Switzerland) with three puffs per nostril (24 UI). The dose of 24 UI is the most frequently reported in the literature. […] This nurse knew neither the patients nor the study.

For `CC[C@H](C)[C@@H]1NC(=O)[C@H](Cc2ccc(O)cc2)NC(=O)[C@@H](N)CSSC[C@@H](C(=O)N2CCC[C@H]2C(=O)N[C@@H](CC(C)C)C(=O)NCC(N)=O)NC(=O)[C@H](CC(N)=O)NC(=O)[C@H](CCC(N)=O)NC1=O` [oxytocin], the level of lethality (wild type newborns; s.c. oxytocin 2 μg in 20 μl NaCl 0.9%, wild type pups n=28, saline 4/28) was 3/28, the “newborns survived at P2 with milk in stomach at P1” value (wild type newborns; wild type, 2 μg oxytocin s.c. 3 to 5 hours after birth) was 95% and the “newborns survived at P2 with milk in stomach at P1” value (Magel2 KO neonates; Magel2 mutant, 2 μg oxytocin s.c. 3 to 5 hours after birth, vehicle lethality 48.5% at P1) was 93%. For the same compound, the “rescue of the death rate due to the feeding deficit” value (Magel2 KO neonates; one single injection, 3-5 hours after birth) was “efficiently rescue the death rate”, the Tolerance (adult patients with PWS) was “excellent” and the “adverse event during the study” value (adult patients with PWS) was “No adverse event”. For the same compound, the “effect on electrocardiogram and PSA” value (adult patients with PWS) was “no effect”.
